Like-named read-outs stand apart in the source and are kept apart here.
Experiments:
Assay type in all cases: cell-based
[1] = test system: Citrobacter freundii E8; assay: minimum inhibitory concentration, Citrobacter freundii E8 (DST agar+10% horse blood)
Experimental: (§1) The minimum inhibitory concentrations (MIC) of the compound (e54) was determined using a standard DST agar+10% horse blood substrate. The tests used an undiluted inoculum of bacteria. […]
(§2) The minimum inhibitory concentrations (MIC) of this compound was determined using a standard DST agar+10% horse blood substrate.
(§3) The minimum inhibitory concentrations (MIC) of this compound was determined using a standard DST agar+10% horse blood substrate. The tests used an undiluted inoculum of bacteria.

[2] = test system: Enterobacter cloacae N1; assay: minimum inhibitory concentration, Enterobacter cloacae N1 (DST agar+10% horse blood)
Experimental: as §1, §2, §3

[3] = test system: Escherichia coli 0111; assay: minimum inhibitory concentration, Escherichia coli 0111 (DST agar+10% horse blood)
Experimental: as §1, §2, §3

[4] = test system: Escherichia coli JT 39; assay: minimum inhibitory concentration, Escherichia coli JT 39 (DST agar+10% horse blood)
Experimental: as §1, §2, §3

[5] = test system: Klebsiella aerogenes A; assay: minimum inhibitory concentration, Klebsiella aerogenes A (DST agar+10% horse blood)
Experimental: as §1, §2, §3

[6] = test system: Proteus mirabilis C977; assay: minimum inhibitory concentration, Proteus mirabilis C977 (DST agar+10% horse blood)
Experimental: as §1, §2, §3

[7] = test system: Proteus morganii I580; assay: minimum inhibitory concentration, Proteus morganii I580 (DST agar+10% horse blood); conditions: Morganella morganii, Proteus morganii I580, DST agar+10% horse blood, read-out: MIC
Experimental: The minimum inhibitory concentrations (MIC) of the compound (e54) was determined using a standard DST agar+10% horse blood substrate. The tests used an undiluted inoculum of bacteria.
Sodium (5R,6S)-3-(2-acetamidoethylthio)--6-ethyl-7-oxo-1-azabicyclo[3.2.0]-hept-2-ene-2-carboxylate [drawing 60] p-Methoxycarbonylbenzyl (5R,6S)-3-(2-acetamidoethylthio)-6-ethyl-7-oxo-1-azabicyclo[3.2.0]hept-2-ene-2-carboxylate (e58) (18 mg) was added to the cathodic compartment of an H-type divided two-compartment electrochemical cell, with a mercury cathode and a platinum anode. The cell contained degassed 0.1 M n-Bu4 NI in dimethylformamide as electrolyte. The volume of the catholyte was about 15 ml [glacial acetic acid (about 10 mg) added] and the volume of the anolyte was about 8 ml. A potentiostat was employed to fix the potential of the cathode at -1.9 V with respect to the standard calomel electrode, and the initial current, about 56 mA, fell to about 15 mA after about 15 min. The catholyte was removed from the cell and the solvent was evaporated in vacuo. The residue was taken up in CH2 Cl2 (10 ml) and washed with water (10 ml). The aqueous phase was separated and washed with CH2 Cl2. The aqueous phase, containing the tetrabutylammonium salt corresponding to (e63) was passed through an Amberlite IR 120 (Na form) column (17×1 cm) and the eluate was reduced to low volume by evaporation in vacuo. The residue was passed through a Biogel P-2 column, to yield fractions containing sodium (5R,6S)-3-(2-acetamidoethylthio)-6-ethyl-7-oxo-1-azabicyclo[3.2.0]hept-2-ene-2-carboxylate (e63) having λmax 298 nm. The minimum inhibitory concentrations (MIC) of this compound was determined using a standard DST agar+10% horse blood substrate.
Sodium (5R,6S)-3-[(E)-2-acetamidoethenylthio]-6-ethyl-7-oxo-1-azabicyclo[3.2.0]hept-2-ene-2-carboxylate [drawing 68] p-Methoxycarbonylbenzyl (5R,6S)-3-[(E)-2-acetamidoethenylthio]-6-ethyl-7-oxo-1-azabicyclo[3.2.0]hept-2-ene-2-carboxylate (e72) (64 mg) in solution in 0.1 M (n-C4 H9)4 NBF4 in dry DMF was added to the cathodic compartment of a divided cylindrical electrochemical cell, with a mercury cathode and platinum anode. The volume of electrolyte in the cathodic compartment was about 25 ml, and in the anodic compartment about 10 ml. Acetic acid (12 mg) was added to the cathodic compartment and ethanol (250 mg) was added to the anodic compartment. The cell was degassed by passing argon for 30 min. The potentiostat was engaged to maintain the potential of the cathode at -1.9 V w.r.t. standard calomel electrode. The initial current (40 mA) fell to about 5 mA after 25 min. The solvent was removed from the catholyte by evaporation in vacuo and the residual oil was taken up in CH2 Cl2 (20 ml) and extracted with water (15 ml) containing sodium tetrafluoroborate (100 mg). The aqueous extract was washed with CH2 Cl2 and then passed down an Amberlite 1R 120 column (1×20 cm) in the sodium form. The volume of the eluate was reduced to about 5 ml by evaporation in vacuo and loaded onto a Biogel P-2 column (18×3 cm). Elution with water yielded fractions containing sodium (5R,6S)-3-[(E)-2-acetamidoethenylthio]-6-ethyl-7-oxo-1-azabicyclo[3.2.0]hept-2-ene-2-carboxylate (e73) λmax 308 nm. The minimum inhibitory concentrations (MIC) of this compound was determined using a standard DST agar+10% horse blood substrate.
Sodium (5R,6R)-3-[(E)-2-acetamidoethenylthio]-6-(1-benzylthioethyl)-7-oxo-1-azabicyclo[3.2.0]hept-2-ene-2-carboxylate [drawing 87] The least polar crystalline isomer of the ester (e93) (40 mg) obtained in Example 70 was added to a mixture of 5% Pd on C (60 mg) in 20% aqueous dioxan (5 ml) which had been prehydrogenated for 0.5 h. Hydrogenation was continued for 4 h and the mixture was filtered through Celite after adding NaHCO3 (7 mg) and water (10 ml). The solution was concentrated to a volume of about 10 ml and was then washed with ethyl acetate (3×30 ml). […]

[8] = test system: Proteus rettgeri WM16; assay: minimum inhibitory concentration, Proteus rettgeri WM16 (DST agar+10% horse blood); conditions: Providencia rettgeri
Experimental: as §1, §2, §3

[9] = test system: Proteus vulgaris WO91; assay: minimum inhibitory concentration, Proteus vulgaris WO91 (DST agar+10% horse blood)
Experimental: as §1, §2, §3

[10] = test system: Pseudomonas aeruginosa A; assay: minimum inhibitory concentration, Pseudomonas aeruginosa A (DST agar+10% horse blood)
Experimental: as §1, §2, §3

[11] = test system: Salmonella typhimurium CT10; assay: minimum inhibitory concentration, Salmonella typhimurium CT10 (DST agar+10% horse blood); conditions: Salmonella enterica
Experimental: as §1, §2, §3

[12] = test system: Serratia marcescens US20; assay: minimum inhibitory concentration, Serratia marcescens US20 (DST agar+10% horse blood)
Experimental: as §1, §2, §3

[13] = test system: Shigella sonnei MB 11967; assay: minimum inhibitory concentration, Shigella sonnei MB 11967 (DST agar+10% horse blood)
Experimental: as §1, §2, §3

[14] = test system: Bacillus subtilis A; assay: minimum inhibitory concentration, Bacillus subtilis A (DST agar+10% horse blood); conditions: undiluted inoculum
Experimental: as §1, §2, §3

[15] = test system: Staphylococcus aureus Oxford; assay: minimum inhibitory concentration, Staphylococcus aureus Oxford (DST agar+10% horse blood)
Experimental: as §1, §2, §3

[16] = test system: Staphylococcus aureus Russell; assay: minimum inhibitory concentration, Staphylococcus aureus Russell (DST agar+10% horse blood)
Experimental: as §1, §2, §3

[17] = test system: Staphylococcus aureus 1517; assay: minimum inhibitory concentration, Staphylococcus aureus 1517 (DST agar+10% horse blood)
Experimental: as §1, §2, §3

[18] = test system: Streptococcus faecalis I; assay: minimum inhibitory concentration, Streptococcus faecalis I (DST agar+10% horse blood); conditions: Enterococcus faecalis
Experimental: as §1, §2, §3

[19] = test system: Streptococcus pneumoniae CN33; assay: minimum inhibitory concentration, Streptococcus pneumoniae CN33 (DST agar+10% horse blood); conditions: undiluted inoculum
Experimental: as §1, §2, §3

[20] = test system: Streptococcus pyogenes CN10; assay: minimum inhibitory concentration, Streptococcus pyogenes CN10 (DST agar+10% horse blood)
Experimental: as §1, §2, §3

[21] = test system: E. coli ESS; assay: minimum inhibitory concentration, E. coli ESS (DST agar+10% horse blood); conditions: Escherichia coli
Experimental: as §1, §2, §3

[22] = Enterobacter cloacae N1, undiluted inoculum

CSC(C)[C@H]1C(=O)N2C(C(=O)[O-])=C(S/C=C/NC(C)=O)C[C@H]12.[Na+] (single isomer, unassigned) [e101]
MIC ([1]; undiluted inoculum): 5 µg/mL
MIC [2, 22]: 2.5 µg/mL
MIC ([3]; undiluted inoculum): 2.5 µg/mL
MIC ([4]; JT39, undiluted inoculum): 2.5 µg/mL
MIC ([5]; undiluted inoculum): 2.5 µg/mL
MIC ([6]; undiluted inoculum): 12.5 µg/mL
MIC ([7]; undiluted inoculum): 12.5 µg/mL
MIC ([8]; undiluted inoculum): 5 µg/mL
MIC ([9]; undiluted inoculum): 5 µg/mL
MIC ([10]; undiluted inoculum): 50 µg/mL
MIC ([11]; undiluted inoculum): 1.2 µg/mL
MIC ([12]; undiluted inoculum): 5 µg/mL
MIC ([13]; MB11967, undiluted inoculum): 1.2 µg/mL
MIC [14]: 1.2 µg/mL
MIC ([15]; undiluted inoculum): 0.5 µg/mL
MIC ([16]; undiluted inoculum): 0.5 µg/mL
MIC ([17]; undiluted inoculum): 12.5 µg/mL
MIC ([18]; undiluted inoculum): 12.5 µg/mL
MIC [19]: 0.1 µg/mL
MIC ([20]; undiluted inoculum): 0.2 µg/mL
MIC ([21]; undiluted inoculum): 1.2 µg/mL

CC[C@H]1C(=O)N2C(C(=O)[O-])=C(S/C=C/NC(C)=O)C[C@H]12.[Na+] [e54, sodium (5R,6R)-3-[(E)-2-acetamidoethenylthio]-6-ethyl-7-oxo-1-azabicyclo[3.2.0]hept-2-ene-2-carboxylate]
MIC ([1]; undiluted inoculum): 12.5 µg/mL
MIC [2, 22]: 25 µg/mL
MIC ([3]; undiluted inoculum): 3.1 µg/mL
MIC ([4]; JT39, undiluted inoculum): 3.1 µg/mL
MIC ([5]; undiluted inoculum): 3.1 µg/mL
MIC ([6]; undiluted inoculum): 25 µg/mL
MIC ([7]; undiluted inoculum): 25 µg/mL
MIC ([8]; undiluted inoculum): 25 µg/mL
MIC ([9]; undiluted inoculum): 25 µg/mL
MIC ([10]; undiluted inoculum): > 50 µg/mL
MIC ([11]; undiluted inoculum): 3.1 µg/mL
MIC ([12]; undiluted inoculum): 12.5 µg/mL
MIC ([13]; MB11967, undiluted inoculum): 3.1 µg/mL
MIC [14]: 0.8 µg/mL
MIC ([15]; undiluted inoculum): 0.4 µg/mL
MIC ([16]; undiluted inoculum): 0.4 µg/mL
MIC ([17]; undiluted inoculum): 12.5 µg/mL
MIC ([18]; undiluted inoculum): 25 µg/mL
MIC [19]: 0.1 µg/mL
MIC ([20]; undiluted inoculum): 0.2 µg/mL
MIC ([21]; undiluted inoculum): 0.4 µg/mL

CC[C@@H]1C(=O)N2C(C(=O)[O-])=C(SCCNC(C)=O)C[C@H]12.[Na+] [e63, sodium (5R,6S)-3-(2-acetamidoethylthio)-6-ethyl-7-oxo-1-azabicyclo[3.2.0]hept-2-ene-2-carboxylate]
MIC [1]: 2.5 µg/mL
MIC ([2]; Enterobacter cloacae, Enterobactor cloacae N1): 20 µg/mL
MIC [3]: 2.5 µg/mL
MIC ([4]; JT39): 10 µg/mL
MIC [5]: 1.2 µg/mL
MIC [6]: 10 µg/mL
MIC [7]: 40 µg/mL
MIC [8]: 10 µg/mL
MIC [9]: 5 µg/mL
MIC [10]: > 40 µg/mL
MIC [11]: 2.5 µg/mL
MIC [12]: 10 µg/mL
MIC ([13]; MB11967): 2.5 µg/mL
MIC [15]: 0.6 µg/mL
MIC [16]: 0.6 µg/mL
MIC [17]: 10 µg/mL
MIC [18]: 40 µg/mL
MIC [20]: 0.1 µg/mL
MIC [21]: 1.2 µg/mL

From US4278686A, “Carbapenum derivatives, a process for their preparation and their use in pharmaceutical compositions and intermediates” (Beecham Group Limited, priority 1978, dated 1981)
